The subject of data set [1] is iNOS mRNA expression. Description: Relative RT-PCR of iNOS mRNA expression in RAW 264.7 cells. The format is cell-based, mouse. To be noted: RAW 264.7, 12 hrs. The method, then:
FIG. 4A and B: Effect of HMP on mRNA expression of iNOS and COX-2. Fig. A, RAW 264.7 cells were incubated in the presence of LPS (0.5 μg/ml) with or without HMP (12.5, 25 μM) for 12 hrs. Total RNA isolated from RAW 264.7 cells after 12 hrs of treatments with LPS alone or with various concentration of HMP was reverse transcribed to make cDNA and 2 μl (for iNOS) or 1 μl (for COX-2) of cDNA was amplified using gene specific primer (Ambion Inc). Ten μl of each PCR reaction was resolved in 2% agarose gel. Lane 1, control; 2. LPS (0.5 μg/ml); 3, LPS+HMP (12.5 μM) and Lane, 4 LPS+HMP (25 μM). Fig. B, Histogram showing densitometric analysis of iNOS and COX-2 mRNA expression. […] This experiment was repeated 3 times separately with similar observation.
The RAW 264.7 cells were cultured (10^6/well) in 6 well plate for 24 hrs and then medium was replaced by fresh medium and different concentrations of HMP either alone or in combination of LPS was added and further cultured for 12 hrs. […] Linear range of amplification of iNOS and COX-2 cDNA (2 μl for COX-2 and 1μl for iNOS of RT reaction mixture) was determined using gene specific primers from Ambion Inc (TX, USA), following manufacturer's instruction. The optimum amount of 18S primer and competitor for iNOS and COX-2 gene were also determined as per manufacturer's instruction. […]

Data set [2] concerns iNOS protein expression. Description: Western blotting of iNOS protein expression in RAW 264.7 cells. The format is cell-based, mouse. Conditions: HMP 12.5 and 25 μM + LPS (0.5 μg/ml), RAW 264.7, 18 hrs. The method, then: FIG. 3. Inhibition of LPS induced iNOS and COX-2 protein expression by HMP. RAW 264.7 cells were treated with various concentrations of HMP and/or LPS (0.5 μg/ml) for 18 h. Total-cell lysate (40 μg) was resolved in 8-10% SDS-PAGE then transferred to PVDF membrane and detected with specific antibodies as described in Section 6. This experiment was repeated 4 times with similar observations. Lane-1, Control (without any treatment); 2, LPS (0.5 μg/ml); 3, LPS and HMP 25 μM; 4, LPS and HMP-12.5 μM.
At indicated time points, cells were rapidly washed with ice-cold PBS and solubilized in cold lysis buffer containing 10 mM Tris-base, 5 mM EDTA, 50 mM NaCl, 1% Triton X-100, 5 mM phenylmethylsulfonyl fluoride (PMSF), 2 mM sodium orthovanadate, 10 μg/ml leupeptin, 25 μg/ml aprotinin, 1 mM sodium pyrophosphate, and 20% glycerol. […]
Equal amount of protein (40 μg) from each sample was loaded on SDS-polyacrylamide electrophoresis gel (8 and 10% separating gels for iNOS and p42/44^MAPK, respectively) and resolved for 1.5 h at 120 V in buffer containing 95 mM Tris-HCl, 960 mM glycine, and 0.5% SDS. […] Specific bands were detected by enhanced chemiluminescence's detection system (Amersham-Pharmacia biotech, NJ, USA) and the membrane was exposed to X-ray film. […]

The subject of data set [3] is Mouse macrophage cell line RAW 264.7. Description: MTT assay, RAW 264.7 cell viability. The class given is cell-based. To be noted: HMP 6.25 μM-25 μM, 48 hrs. The procedure: MTT is a pale yellow substrate that is reduced by living cells to yield a dark blue formazan product. […] Mouse macrophage cell line RAW 264.7 were cultured in 96 well flat bottom plate at concentration of 0.25 million/ml and after 12 hrs of preconditioning, various concentrations of diarylheptanoid (HMP) was added and further cultured for 48 hrs. Thereafter, culture medium was aspirated and 100 μl of MTT dye (1 mg/ml in PBS) was added and further incubated for 4 hrs at 37° C. The formazan crystals made due to dye reduction by viable cells were dissolved using acidified isopropanol (0.1 N HCl). Index of cell viability was calculated by measuring the optical density of color produced by MTT dye reduction at 570 nm.

In the case of `COc1cc(CC/C=C/C(=O)CCc2ccccc2)ccc1O` [AO-4, 7-(4″-hydroxy-3″-methoxyphenyl)-1-phenyl-hept-4-en-3-one], the “inhibition of LPS induced iNOS mRNA expression (densitometry, ratio to 18 S RNA)” value in data set [1] (HMP 12.5 μM + LPS (0.5 μg/ml)) is listed as 47.8%; in data set [1] (HMP 25 μM + LPS (0.5 μg/ml)), 75.5%. The “LPS induced iNOS protein expression (Western blot, in words)” value in data set [2] is reported as “markedly inhibited”. In addition, the “cytotoxic effect on RAW 264.7 cells (cell viability, MTT)” value in data set [3] is on record as “almost no cytotoxic effect”.

Values taken from patent US20050215635A1, “Diarylheptanoid compounds and uses thereof” (priority 2004, published 2005).
